Assay results as given in US4269831A, “Topical dermatological method of use of an androstenopyrazole” (priority 1979, dated 1981).

Key:
[1] = tested on: flank organ of mature male Syrian golden hamsters; assay: Topical antiandrogenic activity in mature male hamsters, both flank organs medicated (Table I); assay type: in vivo; conditions: mean, n=8
From the text: Each flank organ of mature male Syrian golden hamsters having a mean initial body weight of 105 g. was medicated topically with the compound of Formula I dissolved in ethanol (5 microliters) for twenty-one days. Flank organ hair was clipped three times per week to facilitate application. On the day following the last medication the hamsters were killed with an overdose of sodium pentobarbital. The flank organ parameters and the weights of seminal vesicles, adrenals and thymus glands were determined. Flank organ diameter was measured parallel to the breadth of the hamster with vernier calipers. Wet weights were obtained on flank organs excised around the periphery of the pigmented area. The topical activity of the compound of Formula I was also compared with that of 17β-hydroxy-17α-propylandrost-4-en-3-one, an antiandrogen, and hydrocortisone. In this experiment the right flank organ was treated with the test compound while vehicle-treated left flank organ served as control. […] In addition, the individual characteristics of the flank organ, elevation (thickness relative to adjacent skin), area, hair pigment, skin pigment and hair growth were all scored separately on a scale of 0 to 4.

[2] = tested on: hair on the back of mature male Syrian golden hamsters; assay: Reduction of hair regrowth on clipped back of hamsters; assay type: in vivo; conditions: 200 microliters on 9 cm2, 30 daily applications, vehicle 323±49 mg
From the text: The hair on the back of mature male Syrian golden hamsters having a mean initial body weight of 107 g. (7 hamsters per group) was removed with electric clippers. The vehicle (200 microliters of ethanol) or the test solution (0.02% or 0.1% of the compound of Formula I in ethanol) was pipetted slowly to cover the entire clipped area (9 cm.^2). After 30 daily applications, the hair was clipped from the same area and the hair clippings were collected and weighed in order to measure hair regrowth. The hair weights averaged 119±15 and 109±17 mg. for hamsters treated with 0.02% and 0.1% of the compound of Formula I, respectively, compared to 323±49 mg. for vehicle-treated hamsters.

[3] = biological target: T1, hamster flank organ cytosol receptor (Mesocricetus auratus, UniProt A0A1U7QL32); assay: Binding competition with 3H-dihydrotestosterone in hamster flank organ cytosol in vitro (Table VI); set-up: species or system Syrian golden hamsters; conditions: 3H-DHT 2 nM, two hours, no antagonist 13.96
T1 construct: The homogenate was centrifuged (120,000×g for 45 min.) and the cytosol was frozen and stored at -70° C; from tissue; host or cells: flank organ cytosol of castrated male Syrian golden hamsters
T1 sequence (A0A1U7QL32 1-900): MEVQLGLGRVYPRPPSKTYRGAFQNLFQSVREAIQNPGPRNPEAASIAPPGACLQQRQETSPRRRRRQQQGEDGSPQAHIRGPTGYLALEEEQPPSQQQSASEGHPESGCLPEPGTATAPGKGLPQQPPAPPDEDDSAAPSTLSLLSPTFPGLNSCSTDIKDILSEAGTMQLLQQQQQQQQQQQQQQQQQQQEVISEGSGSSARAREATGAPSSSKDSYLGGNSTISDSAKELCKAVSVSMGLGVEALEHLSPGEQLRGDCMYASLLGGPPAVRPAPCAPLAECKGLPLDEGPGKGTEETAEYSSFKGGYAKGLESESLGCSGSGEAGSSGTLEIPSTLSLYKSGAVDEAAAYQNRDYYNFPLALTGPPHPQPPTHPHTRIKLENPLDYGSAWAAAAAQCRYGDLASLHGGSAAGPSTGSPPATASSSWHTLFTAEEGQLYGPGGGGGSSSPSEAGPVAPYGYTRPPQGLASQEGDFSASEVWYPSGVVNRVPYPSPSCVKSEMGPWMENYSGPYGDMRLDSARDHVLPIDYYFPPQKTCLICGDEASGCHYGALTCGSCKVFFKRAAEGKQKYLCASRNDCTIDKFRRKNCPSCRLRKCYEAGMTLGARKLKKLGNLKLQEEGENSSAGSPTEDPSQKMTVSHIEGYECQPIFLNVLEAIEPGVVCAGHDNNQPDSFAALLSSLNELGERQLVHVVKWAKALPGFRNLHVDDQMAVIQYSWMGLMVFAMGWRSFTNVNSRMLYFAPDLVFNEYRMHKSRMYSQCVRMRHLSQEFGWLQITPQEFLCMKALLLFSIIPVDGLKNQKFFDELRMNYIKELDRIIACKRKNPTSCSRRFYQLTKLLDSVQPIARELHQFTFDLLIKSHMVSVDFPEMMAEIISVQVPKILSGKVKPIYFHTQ
Method: The flank organs of twelve mature male Syrian golden hamsters each weighing from 120 to 140 g. and having been castrated 16-18 hours earlier were excised, dissected under the microscope to remove the dermis and the muscle layers and homogenized in buffer (1.5 volumes of 50 mM Tris, 0.5 mM mercaptoethanol and 0.1 mM ethylenediamine tetracetate, pH 7.4). The homogenate was centrifuged (120,000×g for 45 min.) and the cytosol was frozen and stored at -70° C. Six of the cytosol samples were thawed at room temperature, pooled and used for evaluation of in vitro binding.

[4] = tested on: adrenalectomized Sprague-Dawley rats; assay: Systemic glucocorticoid activity in the adrenalectomized rat, oral; assay type: in vivo; set-up: Liver glycogen: unit not given here; conditions: five consecutive days; for Liver glycogen: control 1.82±0.03; for Thymus weights: control 638±50
Method: A solution of the compound of Formula I in ethanolcottonseed oil (1:9, v/v) was administered orally to adrenalectomized Sprague-Dawley rats having a mean initial body weight of 188 g. (10 rats per group) for five consecutive days. Adrenalectomized rats receiving vehicle alone served as controls. Seven hours after the final medication the rats were killed and the thymus glands were excised and weighed. A portion of the liver was excised, frozen and digested in hot aqueous potassium hydroxide (30%). Liver glycogen was then determined. In this test the compound of Formula I caused thymolysis and liver glycogen deposition. The thymus weights at doses of 10 and 30 mg./kg. were 359±31 and 167±20 mg., respectively,in the medicated rats compared with 638±50 mg. in the control rats.

[5] = 1 μg/flank organ/day topical for 21 days
[6] = 5 μg/flank organ/day topical for 21 days
[7] = 25 μg/flank organ/day topical for 21 days
[8] = 125 μg/flank organ/day topical for 21 days

`CC#C[C@]1(O)CC[C@H]2[C@@H]3C[C@H](C)C4=Cc5[nH]ncc5C[C@]4(C)[C@H]3CC[C@@]21C` [Compound of Formula I, 17β-Hydroxy-6α-methyl-17α-propynyl-4-androsteno[3,2-c]-pyrazole] was tested, and the “Flank Organ Diameter” value [1, 5] was 5.7 mm, the “Flank Organ Wet Weight” value [1, 5] was 46.5 mg and the “Organ Weights: Adrenal” value [1, 5] was 26.7 mg. The “Organ Weights: Seminal Vesicles” value [1, 5] was 288.3 mg, the “Organ Weights: Thymus” value [1, 5] was 57.1 mg and the “Flank Organ Diameter” value [1, 6] was 4.8 mm. For the same molecule, the “Flank Organ Wet Weight” value [1, 6] was 36.4 mg, the “Organ Weights: Adrenal” value [1, 6] was 25.5 mg and the “Organ Weights: Seminal Vesicles” value [1, 6] was 277.6 mg. For the same molecule, the “Organ Weights: Thymus” value [1, 6] was 53.2 mg, the “Flank Organ Diameter” value [1, 7] was 4.7 mm and the “Flank Organ Wet Weight” value [1, 7] was 33.4 mg. The “Organ Weights: Adrenal” value [1, 7] was 25.5 mg, the “Organ Weights: Seminal Vesicles” value [1, 7] was 270.3 mg and the “Organ Weights: Thymus” value [1, 7] was 53.7 mg. The “Flank Organ Diameter” value [1, 8] was 4.8 mm, the “Flank Organ Wet Weight” value [1, 8] was 30.7 mg and the “Organ Weights: Adrenal” value [1, 8] was 21.0 mg. The “Organ Weights: Seminal Vesicles” value [1, 8] was 267.3 mg, the “Organ Weights: Thymus” value [1, 8] was 52.8 mg and the “Hair weights (hair regrowth on clipped back area)” value ([2]; 0.02% in ethanol) was 119 ± 15 mg. The “Hair weights (hair regrowth on clipped back area)” value ([2]; 0.1% in ethanol) was 109 ± 17 mg, the “% Bound (Mean ± SE) of 3H-dihydrotestosterone” value (shortened to “% Bound (Mean ± SE)”) ([3]; unlabelled antagonist 20 nM, molar ratio 10) was 9.94 ± .45% and the “% Bound (Mean ± SE)” value ([3]; unlabelled antagonist 200 nM, molar ratio 100) was 8.55 ± .56%. The “% Bound (Mean ± SE)” value ([3]; unlabelled antagonist 2000 nM, molar ratio 1000) was 6.30 ± .003%, the Liver glycogen ([4]; 10 mg./kg. oral) was 5.7±1.1 and the Thymus weights ([4]; 10 mg./kg. oral) was 359 ± 31 mg. It also gave a Liver glycogen ([4]; 30 mg./kg. oral) of 10.9±1.2 and a Thymus weights ([4]; 30 mg./kg. oral) of 167 ± 20 mg.
